The conditions of data set [1]: in water; cited from earlier work.
Data set [2] in a line: Stability of sodium diclazuril in aqueous solution. It counts as physicochemical. The conditions noted are these: degrades into its keto-degradant.

In the case of `N#CC(c1ccc(Cl)cc1)c1c(Cl)cc(-n2ncc(=O)[nH]c2=O)cc1Cl` (centres unmarked) [diclazuril], the “aqueous solubility, saturation concentration” value in data set [1] was “below 1 μg/L”.

With `N#CC(c1ccc(Cl)cc1)c1c(Cl)cc(-n2ncc(=O)[n-]c2=O)cc1Cl.[Na+]` (centres unmarked) [sodium diclazuril], the “stability in an aqueous solution” value in data set [2] is recorded as “unstable”.
